# Results: patent publication US9826761B2, “Compositions and methods for mitigating dietary sulfur in animals” (SarTec Corporation, priority 2008, dated 2017)
# Key:
# [1] = Titration of approx. 200 mM sulfide in fresh rumen fluid with 1 M metal chloride, silver/sulfide electrode; design: species or system Holstein cows; conditions: for mVolts (Negative Value): ~200 mM sulfide, fresh rumen fluid
# Procedure: Fresh undiluted rumen fluid was obtained from rumen fistulated Holstein cows. 1.5 ml of a saturated solution of Na2S in water (approximately 2.7 M) was added to 18.5 ml of the rumen fluid. Sodium sulfide solutions were quantified by titration using a silver/sulfide electrode (Orion, Ion Plus Silver/Sulfide 9616BNWP) and a commercial lead standard (0.1 M Pb^2+, Orion 948206). The final concentration for sulfide ion in the rumen fluid was approximately 200 mM. This solution was then titrated with a 1 M solution of MnCl2 in water. The progress of the reaction was followed using the silver/sulfide electrode.
# Fresh undiluted rumen fluid was obtained from rumen fistulated Holstein cows. 1.5 ml of saturated solution of Na2S in water (approximately 2.7 M) was added to 18.5 ml of the rumen fluid. The final concentration of sulfide ion in the rumen fluid was approximately 200 mM. This solution was then titrated with a 1 M solution of FeCl2 in water. The progress of the reaction was followed using the same silver/sulfide electrode set-up described above (Orion, Ion Plus Silver/Sulfide 9616BNWP).
# Data taken from Examples 1 and 2 above were plotted together in order to gauge the relative efficacy of MnCl2 versus FeCl2 in removing sulfide ion from rumen fluid.
# [2] = Titration of approx. 200 mM sulfide in 24 hour old rumen fluid with 1 M MnCl2, BaCl2 or CaCl2, silver/sulfide electrode; design: species or system Holstein cows
# Procedure: 24 hour old undiluted rumen fluid from rumen fistulated Holstein cows was obtained. 4 ml of Na2S in water (approximately 1 M) was added to 16 ml of the rumen fluid. The final concentration of sulfide ion in the rumen fluid was approximately 200 mM. […] The progress of the reaction was followed using the same silver/sulfide electrode set-up described above (Orion, Ion Plus Silver/Sulfide 9616BNWP).
# [3] = Precipitating activity: rumen fluid containing manganese compound titrated with 1.0M Na2S, silver/sulfide electrode; design: species or system Holstein cows; conditions: for mVolts: 200 mM MnCl2 in rumen fluid
# Procedure: Next, 0.28 g of MnO(II) was placed in a 100 ml beaker and 20 ml of rumen fluid was added. Then 0.17 g of MnO2(IV) was placed in 100 ml beaker and 20 ml of rumen fluid was added. Each of these compositions, in addition to a rumen fluid control, was then titrated with a 1.0M solution of Na2S. The progress of the reaction was followed using the same silver/sulfide electrode set-up described above (Orion, Ion Plus Silver/Sulfide 9616BNWP).
# [4] = Effect of MnCl2 supplementation on cattle (feedlot trial); type: in vivo, Angus based feeder calves; conditions: feeder calves, approx. 0.55 g/head/day MnCl2 and 10.0 g/head/day FeCl2 in supplement with Yucca extract
# From the text: In this example, forty-six Angus based feeder calves were blocked by sex (heifers and steers) and assigned within block to one of two treatments. One group (one pen of steers and one pen of heifers) was fed a commercially available feed additive including Yucca extract ([…] Corporation, Anoka, Minn.) mixed into the feedlot supplement. […] The supplement also contained minerals, vitamins, […]), and carrier feed products including corn, barley sprouts, and distillers grains. […] The results (DMI=dry matter intake, ADG=average daily gain) are shown below in Table 5.
substance,measurement,setting,value
manganese (II) chloride [MnCl2],concentration of sulfide ion within the rumen fluid,[1]; addition of 1 M titrant to ~200 mM sulfide in fresh rumen fluid,effective to reduce the concentration of sulfide ion
same,mVolts (Negative Value),[1]; titrant volume 0.0 of 1M MnCl2,952.6 mVolts
same,mVolts (Negative Value),[1]; titrant volume 0.3 of 1M MnCl2,950.5 mVolts
same,mVolts (Negative Value),[1]; titrant volume 0.5 of 1M MnCl2,947.7 mVolts
same,mVolts (Negative Value),[1]; titrant volume 0.7 of 1M MnCl2,947.8 mVolts
same,mVolts (Negative Value),[1]; titrant volume 0.9 of 1M MnCl2,940.4 mVolts
same,mVolts (Negative Value),[1]; titrant volume 1.1 of 1M MnCl2,929.7 mVolts
same,mVolts (Negative Value),[1]; titrant volume 1.4 of 1M MnCl2,918.4 mVolts
same,mVolts (Negative Value),[1]; titrant volume 1.6 of 1M MnCl2,899.9 mVolts
same,mVolts (Negative Value),[1]; titrant volume 1.8 of 1M MnCl2,882.2 mVolts
same,mVolts (Negative Value),[1]; titrant volume 2.0 of 1M MnCl2,861.5 mVolts
same,mVolts (Negative Value),[1]; titrant volume 2.3 of 1M MnCl2,850.2 mVolts
same,mVolts (Negative Value),[1]; titrant volume 2.5 of 1M MnCl2,830.5 mVolts
same,mVolts (Negative Value),[1]; titrant volume 2.7 of 1M MnCl2,808.9 mVolts
same,mVolts (Negative Value),[1]; titrant volume 2.9 of 1M MnCl2,777.1 mVolts
same,mVolts (Negative Value),[1]; titrant volume 3.2 of 1M MnCl2,735.7 mVolts
same,mVolts (Negative Value),[1]; titrant volume 3.4 of 1M MnCl2,702.0 mVolts
same,mVolts (Negative Value),[1]; titrant volume 3.6 of 1M MnCl2,686.7 mVolts
same,mVolts (Negative Value),[1]; titrant volume 3.9 of 1M MnCl2,678.2 mVolts
same,mVolts (Negative Value),[1]; titrant volume 4.1 of 1M MnCl2,672.4 mVolts
same,mVolts (Negative Value),[1]; titrant volume 4.3 of 1M MnCl2,667.8 mVolts
same,mVolts (Negative Value),[1]; titrant volume 4.5 of 1M MnCl2,664.4 mVolts
same,mVolts (Negative Value),[1]; titrant volume 4.7 of 1M MnCl2,661.8 mVolts
same,mVolts (Negative Value),[1]; titrant volume 4.9 of 1M MnCl2,658.9 mVolts
same,mVolts (Negative Value),[1]; titrant volume 5.2 of 1M MnCl2,656.6 mVolts
same,mVolts (Negative Value),[1]; titrant volume 5.4 of 1M MnCl2,654.6 mVolts
same,mVolts (Negative Value),[1]; titrant volume 6.0 of 1M MnCl2,649.8 mVolts
same,mVolts,"[2]; Volume 0.0 of 1.0M MnCl2, ~200 mM sulfide",934.0 mVolts
same,mVolts,"[2]; Volume 0.2 of 1.0M MnCl2, ~200 mM sulfide",931.7 mVolts
same,mVolts,"[2]; Volume 0.4 of 1.0M MnCl2, ~200 mM sulfide",931.6 mVolts
same,mVolts,"[2]; Volume 0.6 of 1.0M MnCl2, ~200 mM sulfide",930.7 mVolts
same,mVolts,"[2]; Volume 0.8 of 1.0M MnCl2, ~200 mM sulfide",929.4 mVolts
same,mVolts,"[2]; Volume 1.0 of 1.0M MnCl2, ~200 mM sulfide",926.6 mVolts
same,mVolts,"[2]; Volume 1.2 of 1.0M MnCl2, ~200 mM sulfide",921.4 mVolts
same,mVolts,"[2]; Volume 1.4 of 1.0M MnCl2, ~200 mM sulfide",906.6 mVolts
same,mVolts,"[2]; Volume 1.7 of 1.0M MnCl2, ~200 mM sulfide",903.0 mVolts
same,mVolts,"[2]; Volume 1.8 of 1.0M MnCl2, ~200 mM sulfide",863.5 mVolts
same,mVolts,"[2]; Volume 1.9 of 1.0M MnCl2, ~200 mM sulfide",855.2 mVolts
same,mVolts,"[2]; Volume 2.0 of 1.0M MnCl2, ~200 mM sulfide",848.1 mVolts
same,mVolts,"[2]; Volume 2.1 of 1.0M MnCl2, ~200 mM sulfide",841.7 mVolts
same,mVolts,"[2]; Volume 2.2 of 1.0M MnCl2, ~200 mM sulfide",834.5 mVolts
same,mVolts,"[2]; Volume 2.3 of 1.0M MnCl2, ~200 mM sulfide",829.2 mVolts
same,mVolts,"[2]; Volume 2.4 of 1.0M MnCl2, ~200 mM sulfide",823.9 mVolts
same,mVolts,"[2]; Volume 2.5 of 1.0M MnCl2, ~200 mM sulfide",817.9 mVolts
same,mVolts,"[2]; Volume 2.7 of 1.0M MnCl2, ~200 mM sulfide",811.4 mVolts
same,mVolts,"[2]; Volume 2.8 of 1.0M MnCl2, ~200 mM sulfide",804.0 mVolts
same,mVolts,"[2]; Volume 2.9 of 1.0M MnCl2, ~200 mM sulfide",794.9 mVolts
same,mVolts,"[2]; Volume 3.0 of 1.0M MnCl2, ~200 mM sulfide",783.1 mVolts
same,mVolts,"[2]; Volume 3.1 of 1.0M MnCl2, ~200 mM sulfide",767.9 mVolts
same,mVolts,"[2]; Volume 3.3 of 1.0M MnCl2, ~200 mM sulfide",746.6 mVolts
same,mVolts,"[2]; Volume 3.4 of 1.0M MnCl2, ~200 mM sulfide",733.1 mVolts
same,mVolts,"[2]; Volume 3.5 of 1.0M MnCl2, ~200 mM sulfide",718.3 mVolts
same,mVolts,"[2]; Volume 3.6 of 1.0M MnCl2, ~200 mM sulfide",704.2 mVolts
same,mVolts,"[2]; Volume 3.7 of 1.0M MnCl2, ~200 mM sulfide",694.2 mVolts
same,mVolts,"[2]; Volume 3.8 of 1.0M MnCl2, ~200 mM sulfide",687.0 mVolts
same,mVolts,"[2]; Volume 3.9 of 1.0M MnCl2, ~200 mM sulfide",679.7 mVolts
same,mVolts,"[2]; Volume 4.0 of 1.0M MnCl2, ~200 mM sulfide",674.1 mVolts
same,mVolts,"[2]; Volume 4.2 of 1.0M MnCl2, ~200 mM sulfide",670.1 mVolts
same,mVolts,"[2]; Volume 4.4 of 1.0M MnCl2, ~200 mM sulfide",665.4 mVolts
same,mVolts,"[2]; Volume 4.6 of 1.0M MnCl2, ~200 mM sulfide",661.8 mVolts
same,mVolts,"[2]; Volume 5.0 of 1.0M MnCl2, ~200 mM sulfide",657.1 mVolts
same,total sulfide ion concentrations in the rumen fluid versus BaCl2 and CaCl2,[2]; ~200 mM sulfide,substantially lower total sulfide ion concentrations
same,mVolts,[3]; Vol 1M Na2S 0.0,533.2 mVolts
same,mVolts,[3]; Vol 1M Na2S 0.3,617.3 mVolts
same,mVolts,[3]; Vol 1M Na2S 0.5,631.2 mVolts
same,mVolts,[3]; Vol 1M Na2S 0.8,640.0 mVolts
same,mVolts,[3]; Vol 1M Na2S 1.1,641.8 mVolts
same,mVolts,[3]; Vol 1M Na2S 1.4,647.5 mVolts
same,mVolts,[3]; Vol 1M Na2S 1.7,649.0 mVolts
same,mVolts,[3]; Vol 1M Na2S 2.1,652.1 mVolts
same,mVolts,[3]; Vol 1M Na2S 2.3,653.0 mVolts
same,mVolts,[3]; Vol 1M Na2S 2.6,652.6 mVolts
same,mVolts,[3]; Vol 1M Na2S 2.9,658.0 mVolts
same,mVolts,[3]; Vol 1M Na2S 3.2,667.2 mVolts
same,mVolts,[3]; Vol 1M Na2S 3.4,678.8 mVolts
same,mVolts,[3]; Vol 1M Na2S 3.5,691.3 mVolts
same,mVolts,[3]; Vol 1M Na2S 3.6,710.6 mVolts
same,mVolts,[3]; Vol 1M Na2S 3.8,742.0 mVolts
same,mVolts,[3]; Vol 1M Na2S 3.9,770.9 mVolts
same,mVolts,[3]; Vol 1M Na2S 4.0,783.4 mVolts
same,mVolts,[3]; Vol 1M Na2S 4.1,804.1 mVolts
same,mVolts,[3]; Vol 1M Na2S 4.2,820.2 mVolts
same,mVolts,[3]; Vol 1M Na2S 4.3,837.8 mVolts
same,mVolts,[3]; Vol 1M Na2S 4.4,851.7 mVolts
same,mVolts,[3]; Vol 1M Na2S 4.5,863.4 mVolts
same,mVolts,[3]; Vol 1M Na2S 4.7,877.0 mVolts
same,mVolts,[3]; Vol 1M Na2S 4.8,883.6 mVolts
same,mVolts,[3]; Vol 1M Na2S 4.9,888.2 mVolts
same,mVolts,[3]; Vol 1M Na2S 5.0,893.2 mVolts
same,precipitating sulfide ion versus MnO(II) and MnO2(IV),[3]; rumen fluid titrated with 1.0M Na2S,much more effective in precipitating sulfide ion
same,ADG (average daily gain),[4],3.58 lb/head/day
same,DMI (dry matter intake),[4],23.18 lb/head/day
same,End wt.,[4],1147.5 lb
same,Feed Efficiency (DM/gain),[4],6.48
